Data on 26 compounds can be found in patent US12129237B2, “Substituted diaminocarboxamide and diaminocarbonitrile pyrimidines, compositions thereof, and methods of treatment therewith” (SIGNAL PHARMACEUTICALS, LLC, priority 2011, dated 2024).

T1 sequence (P45983 whole entry): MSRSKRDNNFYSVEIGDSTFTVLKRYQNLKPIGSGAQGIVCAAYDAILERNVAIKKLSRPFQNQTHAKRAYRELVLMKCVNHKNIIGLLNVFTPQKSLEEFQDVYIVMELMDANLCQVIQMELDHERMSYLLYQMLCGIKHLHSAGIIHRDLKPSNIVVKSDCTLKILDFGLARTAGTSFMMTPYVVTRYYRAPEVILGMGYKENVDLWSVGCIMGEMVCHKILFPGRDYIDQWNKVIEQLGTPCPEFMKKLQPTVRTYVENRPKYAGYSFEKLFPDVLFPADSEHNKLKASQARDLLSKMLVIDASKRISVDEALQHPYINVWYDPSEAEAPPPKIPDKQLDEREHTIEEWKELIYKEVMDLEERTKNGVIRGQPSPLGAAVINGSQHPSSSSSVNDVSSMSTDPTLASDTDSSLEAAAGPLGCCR

One test addresses T1, JNK1 (Homo sapiens, UniProt P45983).
T1 construct: purchased Carna Biosciences
The experiment in a line: JNK1 biochemical assays (one or more of: time resolved fluorescence, Z'-LYTE Cascade, radioactive). The note with it: Table 2; JNK1 IC50 activity level; read-out: Act. Level.
On to `NC(=O)c1cnc(NC2CCOCC2)nc1Nc1ccccc1` [Example B-11, 4-(phenylamino)-2-(tetrahydro-2H-pyran-4-ylamino)pyrimidine-5-carboxamide], for which the IC50 is under 200 nM. `NC(=O)c1cnc(N[C@H]2CCc3ncccc3C2)nc1N[C@@H]1CCCC[C@H](O)C1` [Example B-97, 4-((1R,3S)-3-hydroxycycloheptylamino)-2-((S)-5,6,7,8-tetrahydroquinolin-6-ylamino)pyrimidine-5-carboxamide]: the IC50 is under 200 nM. Regarding `NC(=O)c1cnc(NC2CCNCC2)nc1Nc1ccccc1` [Example B-9, 4-(phenylamino)-2-(piperidin-4-ylamino)pyrimidine-5-carboxamide], the IC50 was in the range of 1000 to 10000 nM.

Turning to `CC(Nc1ncc(C(N)=O)c(Nc2ccccc2)n1)c1ccccc1` (centres unmarked) [Example B-53, 4-(phenylamino)-2-(1-phenylethylamino)pyrimidine-5-carboxamide], the IC50 fell in the range of 200 to 800 nM. For `CN(C)CCNc1ncc(C(N)=O)c(Nc2ccccc2)n1` [Example B-61, 2-(2-(dimethylamino)ethylamino)-4-(phenylamino)pyrimidine-5-carboxamide], the IC50 lay within 1000 to 10000 nM.

The same test, now with this note: Table 3; JNK1 IC50 activity level; read-out: Act. Level.
Consider `CC(C)CCNc1nc(N[C@H]2CC[C@H](O)CC2)ncc1C#N` [Example C-60, 2-((1r,4r)-4-hydroxycyclohexylamino)-4-(isopentylamino)pyrimidine-5-carbonitrile], for which the IC50 was in the range of 1000 to 10000 nM.

Still in this test, the particulars now being: one or more of the JNK1 biochemical assays; read-out: Act. Level (JNK1 IC50 activity level).
`CC(C)(C)Nc1ncc(C(N)=O)c(N[C@@H]2CCC(C)(C)[C@H](O)C2)n1` [Example 324, 2-(tert-butylamino)-4-((1R,3R)-3-hydroxy-4,4-dimethylcyclohexylamino)pyrimidine-5-carboxamide]: the IC50 was under 200 nM. For the compound `C[C@@H]1CC[C@@H](Nc2nc(NC(C)(C)C3CC3)ncc2C(N)=O)C[C@H]1O` [Example 397, 2-(2-cyclopropylpropan-2-ylamino)-4-((1R,3R,4R)-3-hydroxy-4-methylcyclohexylamino)pyrimidine-5-carboxamide], the IC50 was under 200 nM. Same read-out and setting: next, `CC1(C)CCC(Nc2nc(NC(C)(C)C)ncc2C(N)=O)C(O)C1` (centres unmarked) [Example 343, 2-(tert-butylamino)-4-(2-hydroxy-4,4-dimethylcyclohexylamino)pyrimidine-5-carboxamide]: under 200 nM. Still for that read-out and setting: to `CC(C)(C)Nc1nc(N[C@H]2CC[C@H](OC3CC3)CC2)ncc1C(N)=O` [Example 304, 4-(tert-butylamino)-2-((1r,4r)-4-cyclopropoxycyclohexylamino)pyrimidine-5-carboxamide] belongs under 200 nM; to `NC(=O)c1cnc(NC23CCC(O)(CC2)CC3)nc1NC1CCC1` [Example 232, 4-(cyclobutylamino)-2-(4-hydroxybicyclo[2.2.2]octan-1-ylamino)pyrimidine-5-carboxamide], under 200 nM. Still for that read-out and setting: next, `CC(C)Nc1ncc(C(N)=O)c(N[C@@H]2CCC[C@](C)(O)C2)n1` [Example 338, 4-((1R,3S)-3-hydroxy-3-methylcyclohexylamino)-2-(isopropylamino)pyrimidine-5-carboxamide]: under 200 nM; `CCO[C@H]1CC[C@H](Nc2ncc(C(N)=O)c(N[C@H](C)C3CCC3)n2)CC1` [Example 294, 4-((R)-1-cyclobutylethylamino)-2-((1r,4R)-4-ethoxycyclohexylamino)pyrimidine-5-carboxamide]: 1000 to 10000 nM; `CC(C)(Nc1nc(N[C@@H]2CCC[C@H](O)C2)ncc1C(N)=O)C1CC1` [Example 466, 4-(2-cyclopropylpropan-2-ylamino)-2-((1R,3S)-3-hydroxycyclohexylamino)pyrimidine-5-carboxamide]: under 200 nM.

Still in this test, the particulars now being: tested in one or more of the JNK1 biochemical assays; read-out: Act. Level (JNK1 biochemical assay IC50 activity level).
On to `COC[C@H]1CC[C@@H](Nc2nc(N[C@H]3CC[C@H](O)CC3)ncc2C(N)=O)CC1` [Example A-109, 2-((1r,4r)-4-hydroxycyclohexylamino)-4-((1s,4s)-4-(methoxymethyl)cyclohexylamino)pyrimidine-5-carboxamide], for which the IC50 was under 200 nM. Consider `CO[C@H]1CC[C@H](Nc2ncc(C(N)=O)c(N[C@@H]3CCCC[C@@](C)(O)C3)n2)CC1` [Example A-186, 4-((1R,3R)-3-hydroxy-3-methylcycloheptylamino)-2-((1r,4R)-4-methoxycyclohexylamino)pyrimidine-5-carboxamide], for which the IC50 was under 200 nM. On the same count and under the same terms, next, `CO[C@H]1CCC[C@@H](Nc2ncc(C(N)=O)c(N[C@@H]3CCC[C@H](O)C3)n2)CC1` [Example A-163, 4-((1R,3S)-3-hydroxycyclohexylamino)-2-((1R,4S)-4-methoxycycloheptylamino)pyrimidine-5-carboxamide]: under 200 nM; `CCO[C@H]1CC[C@@H](Nc2nc(NC3CCC3)ncc2C(N)=O)CC1` [Example A-135, 2-(cyclobutylamino)-4-((1s,4s)-4-ethoxycyclohexylamino)pyrimidine-5-carboxamide]: 200 to 800 nM; `CNC(=O)[C@H]1CC[C@H](Nc2ncc(C(N)=O)c(N[C@@H]3CCC[C@H](O)C3)n2)CC1` [Example A-56, 4-((1R,3S)-3-hydroxycyclohexylamino)-2-((1r,4R)-4-(methylcarbamoyl)cyclohexylamino)pyrimidine-5-carboxamide]: under 200 nM.

Consider `NC[C@H]1CC[C@@H](Nc2nc(NC3CCCC3)ncc2C(N)=O)CC1` [Example A-131, 4-((1s,4s)-4-(aminomethyl)cyclohexylamino)-2-(cyclopentylamino)pyrimidine-5-carboxamide], for which the IC50 is under 200 nM.

With `C[C@@H]1CC[C@@H](Nc2nc(N[C@H]3CC[C@H](OC(F)F)CC3)ncc2C(N)=O)C[C@H]1O` [Example A-173, 2-((1r,4R)-4-(difluoromethoxy)cyclohexylamino)-4-((1R,3R,4R)-3-hydroxy-4-methylcyclohexylamino)pyrimidine-5-carboxamide], the IC50 is under 200 nM. Turning to `CCO[C@H]1CC[C@H](Nc2ncc(C(N)=O)c(NCCO)n2)CC1` [Example A-71, 2-((1r,4r)-4-ethoxycyclohexylamino)-4-(2-hydroxyethylamino)pyrimidine-5-carboxamide], the IC50 is under 200 nM.

Regarding `C[C@@H]1CC[C@@H](Nc2nc(N[C@H]3CC[C@H](OCC(F)(F)F)CC3)ncc2C(N)=O)C[C@H]1O` [Example A-178, 4-((1R,3R,4R)-3-hydroxy-4-methylcyclohexylamino)-2-((1r,4R)-4-(2,2,2-trifluoroethoxy)cyclohexylamino)pyrimidine-5-carboxamide], the IC50 was under 200 nM. For the compound `NC(=O)c1cnc(N[C@@H]2CCCOC2)nc1N[C@@H]1CCC[C@H](O)C1` [Example A-50, 4-((1R,3S)-3-hydroxycyclohexylamino)-2-((R)-tetrahydro-2H-pyran-3-ylamino)pyrimidine-5-carboxamide], the IC50 is under 200 nM. The same measure, in the same setting: to `CO[C@H]1CC[C@H](Nc2ncc(C(N)=O)c(N[C@@H]3CCCC[C@](C)(O)C3)n2)CC1` [Example A-183, 4-((1R,3S)-3-hydroxy-3-methylcycloheptylamino)-2-((1r,4R)-4-methoxycyclohexylamino)pyrimidine-5-carboxamide] belongs under 200 nM. On the same count and under the same terms, to `CC(C)(C)Nc1ncc(C(N)=O)c(N[C@@H]2CCCC[C@H](O)C2)n1` [Example A-182, 2-(tert-butylamino)-4-((1R,3S)-3-hydroxycycloheptylamino)pyrimidine-5-carboxamide] belongs under 200 nM.
